In the NIST ThermoML archive (doi:10.1016/j.jct.2010.07.001):
Numbers after ± are expanded uncertainties.

Key:
[1] = Molar enthalpy of transition or fusion; details: Crystal; DSC
[2] = Crystal; DTA

Row | SMILES | Molar enthalpy of transition or fusion [1] [kcal/mol] | Normal melting temperature [2] [°C]
1 | CS(=O)(=O)Nc1ccc([N+](=O)[O-])cc1Oc1ccccc1 [nimesulide] | 11.3 ± 0.311 | 149.1 ± 2.1
2 | c1ccc(-c2ccc(C(c3ccccc3)n3ccnc3)cc2)cc1 (configuration not stated) [1-([1,1'-biphenyl]-4-yl(phenyl)methyl)-1H-imidazole] | 8.96 ± 0.239 | 150 ± 2.1
3 | Cc1cccc(Nc2ccccc2C(=O)O)c1C [2-((2,3-dimethylphenyl)amino)benzoic acid] | 17 ± 9.56 | 230.0 ± 2.1
4 | CC(C)(C)NCC(O)COc1cccc2c1CC(O)C(O)C2 (configuration not stated) | 12.7 ± 0.335 | 130.2 ± 2.1
5 | CC(C)NCC(O)COc1ccc(CC(N)=O)cc1 (configuration not stated) [2-(4-(2-hydroxy-3-(isopropylamino)propoxy)phenyl)acetamide] | 8.75 ± 0.239 | 151.4 ± 2.1
6 | C[C@]12CC[C@@H]3c4ccc(O)cc4CC[C@H]3[C@@H]1CCC2=O [3-hydroxy-1,3,5(10)-estratrien-17-one] | 10.8 ± 0.287 | 254.0 ± 2.1
